Data on 2 compounds can be found in patent US20160354373A1, “METHODS OF TREATING ACUTE T CELL LEUKEMIA” (priority 2015, published 2016).

Data set [1] relates to Myc expression signatures. The conditions noted are these: AMD3100 or vehicle for 4 days in vitro, OP9 co-culture.
Experimental: FIG. 14A is a heat map depicting differentially expressed genes (Myc targets are indicated) in primary mouse T-ALL cells after 4 day culture with OP9 cells in the presence of AMD3100 or vehicle (right; n=3). […] Data represents 3 different experiments, with cells pooled from 1-3 mice per experiment.
Primary mouse T-ALL cells isolated from spleen were maintained on OP9 stromal cells in OptiMEM+GlutaMAX (Invitrogen) supplemented with 10% FBS, 5 ng/ml IL-7, penicillin and streptomycin, and 55 μM (3-mercaptoethanol and passaged every 3-4 days onto a fresh feeder layer. OP9 cells were pre-treated with 7.5 ng/mL mitomycin C (Sigma) to prevent feeder cell division. Mouse ETP T-ALL (Treanor et al., “Interleukin-7 Receptor Mutants Initiate Early T Cell Precursor Leukemia in Murine Thymocyte Progenitors with Multipotent Potential,” J. Exp. Med. 211:701-713 (2014), which is hereby incorporated by reference in its entirety) and a T-ALL cell line generated by ENU mutagenesis carrying a Notch1 PEST domain mutation (G7084 (ins)C7085) were maintained on OP9-DLL4 feeders. […]
Total RNA was extracted from samples using RNeasy Plus Mini Kit (Life Technologies). […] RNA libraries were then sequenced on the Illumina HiSeq 2000 or 2500 using 50 bp single-end reads. […]
The conditions of data set [2]: recent clinical trials data; cited from earlier work.
Data set [3] has as its system Notch1-ΔE-IRES-GFP+ T-ALL cells. The conditions noted are these: AMD3465 20 nmol/hour via s.c. osmotic pump vs PBS; two weeks of treatment; started at >5% GFP+ blasts in blood.
Text: After GFP^+ leukemic cells reached 5% of white blood cells, osmotic pumps filled with AMD3465 (20 nmol/hour) or vehicle (PBS) were implanted subcutaneously (s.c.). The graphs show T-ALL cell numbers in the indicated tissues 2 weeks after treatment initiation. Bars represent the mean. […] After leukemia reached 5% of white blood cells, osmotic pumps filled with AMD3465 (25 nmol/hour) or vehicle were implanted s.c. Analysis was 2 weeks after treatment initiation. […] Values represent the mean frequency of hCD45^+ cells+/−SEM. […] Bars represent the mean.
For inhibition of CXCR4 in primary mouse T-ALL, mice were anaesthetized by isoflurane inhalation and implanted subcutaneously with osmotic pumps (model 2002; Alzet) filled with 40 mM AMD3465 (Tocris) or PBS (flow rate 0.5 ul/hour). […] For CXCR4 inhibition in xenografted patient T-ALL, NOD-SCID mice were implanted with osmotic pumps filled with 50 mM AMD3465 or PBS. Mice implanted with osmotic pumps were sacrificed 14 days later for analysis of tumor burden by flow cytometry.
To this end, two cohorts of lethally irradiated mice were transplanted with Notch1-ΔE-IRES-GFP^+ bone marrow progenitor cells, and after >5% peripheral blood lymphocytes constituted GFP^+ leukemic blasts, AMD3465 (20 nmol/hour) or PBS was administered via osmotic pump.
Data set [4] has as its system primary human T-ALL cells (hCD45+). The conditions noted are these: two weeks.
Text: After GFP^+ leukemic cells reached 5% of white blood cells, osmotic pumps filled with AMD3465 (20 nmol/hour) or vehicle (PBS) were implanted subcutaneously (s.c.). […] After leukemia reached 5% of white blood cells, osmotic pumps filled with AMD3465 (25 nmol/hour) or vehicle were implanted s.c. Analysis was 2 weeks after treatment initiation. […] Values represent the mean frequency of hCD45^+ cells+/−SEM.
For human xenograft studies, NOD-SCID donor mice were used. […] 1-5×10^6 cells patient cells were transplanted into immunodeficient mouse strains via retro-orbital injection. Cells from spleen of these primary recipients were used for experiments.
For CXCR4 inhibition in xenografted patient T-ALL, NOD-SCID mice were implanted with osmotic pumps filled with 50 mM AMD3465 or PBS. Mice implanted with osmotic pumps were sacrificed 14 days later for analysis of tumor burden by flow cytometry.
First, the primary human leukemia cells were expanded in immune-deficient NOD/MrkBomTac-Prkdc^scid (NOD-SCID) hosts for 6 weeks. Subsequently, two million human T-ALL cells were transplanted into secondary NOD-SCID hosts and peripheral blood was monitored for the appearance of human CD45+ (hCD45+) leukemic cells. Once leukemia constituted >5% of white blood cells in blood, treatment began with AMD3465 or vehicle using osmotic pumps. Two weeks later, animals were sacrificed and the leukemia burden was assessed.
Data set [5] has as its system Myc. The conditions noted are these: 4 days culture on OP9 cells with AMD3465 or vehicle, in vitro.
Experimental: (§1) Primary mouse T-ALL cells isolated from spleen were maintained on OP9 stromal cells in OptiMEM+GlutaMAX (Invitrogen) supplemented with 10% FBS, 5 ng/ml IL-7, penicillin and streptomycin, and 55 μM (3-mercaptoethanol and passaged every 3-4 days onto a fresh feeder layer. OP9 cells were pre-treated with 7.5 ng/mL mitomycin C (Sigma) to prevent feeder cell division. Mouse ETP T-ALL (Treanor et al., “Interleukin-7 Receptor Mutants Initiate Early T Cell Precursor Leukemia in Murine Thymocyte Progenitors with Multipotent Potential,” J. Exp. Med. 211:701-713 (2014), which is hereby incorporated by reference in its entirety) and a T-ALL cell line generated by ENU mutagenesis carrying a Notch1 PEST domain mutation (G7084 (ins)C7085) were maintained on OP9-DLL4 feeders. AMD3100 octahydrochloride hydrate (10 ug/mL in water; Sigma), AMD3465 hexahydrobromide (50 ug/mL in water; Tocris or Cayman Chemical) or the corresponding vehicle was added to culture media at the start of the culture period.
Data set [6] deals with primary mouse T-ALL cells. The conditions noted are these: MIG-IRES-GFP-cMyc vs control transduced cells; 4 days OP9 co-culture.
Experimental: Data represents 1 experiment with 3 replicates per group for each AMD3465 concentration tested. Error bars represent +/−SD.
as §1
The subject of data set [7] is Myc. The conditions noted are these: 8 hours after s.c. AMD3465, 2 doses of 25 mg/kg 4 hours apart, vs PBS; wild-type T-ALL.
Experimental: Whole cell lysates were prepared in RIPA buffer (50 mM Tris-HCl, 150 mM NaCl, 1% NP-40, 0.25% sodium deoxycholate, 5 mM EDTA) containing complete Mini protease and phosSTOP phosphatase inhibitors (Roche) and resolved by 8% SDS-PAGE gel electrophoresis. Proteins were transferred to nitrocellulose membranes (Bio-Rad) and probed with primary antibodies raised against c-Myc (polyclonal, Cell Signaling Technologies); 0-tubulin (polyclonal, Abcam); and β-actin (clone C4, Santa Cruz Biotechnologies). Following incubation with horseradish peroxidase (HRP)-conjugated anti-mouse or anti-rabbit secondary antibodies (Jackson laboratories), proteins were detected using the SuperSignal West Pico ECL Kit (Thermo Scientific) and exposed to film or imaged using the ChemiDoc MP system (Bio-rad).
For inhibition of CXCR4 in primary mouse T-ALL, mice were anaesthetized by isoflurane inhalation and implanted subcutaneously with osmotic pumps (model 2002; Alzet) filled with 40 mM AMD3465 (Tocris) or PBS (flow rate 0.5 ul/hour).

Each structure is given as a SMILES string.

As to `c1cc(CN2CCCNCCNCCCNCC2)ccc1CN1CCCNCCNCCCNCC1` [AMD3100, 1,1′-[1,4-phenylenebis(methylene)]bis[1,4,8,11-tetraazacyclotetradecane]], the “enrichment of genes down-regulated by treatment in Myc DNA binding databases (GSEA)” value in data set [1] is “significant enrichment”. Further, in data set [2], the absorption entry is “absorbed quickly” and the tolerability result was “well tolerated”.

In the case of `c1ccc(CNCc2ccc(CN3CCCNCCNCCCNCC3)cc2)nc1` [AMD3465, N[1,4,8,11-tetraazacyclotetradecanyl-1,4-phenylene-bis-(methylene)]-2-aminomethyl-pyridine], the “leukemia burden across all tissues surveyed (T-ALL cell numbers)” value in data set [3] is listed as “substantial reduction”. The “number of hCD45+ cells in blood and spleen” value in data set [4] (AMD3465 25 nmol/hour via s.c. osmotic pump vs vehicle, patient 1 and 2 xenografts in NOD-SCID) is given as “significantly reduced”. Moreover, the “T-ALL infiltration of brain, liver and lungs (histo-pathological analysis)” value in data set [4] (AMD3465 via osmotic pump vs PBS, patient 1 xenograft) is on record as “virtually leukemia-free”. The splenomegaly entry in data set [4] (AMD3465 via osmotic pump vs vehicle (PBS), xenografted NOD-SCID mice) is reported as “substantially decreased”. The “Myc protein expression (MYC-GFP fusion allele) in mouse LIC cells” value with Myc [5] was “Reduced”. Also, the “proliferation of T-ALL cells in the presence of AMD3465 upon Myc overexpression” value in data set [6] is on record as “partially restored”. The “Myc protein levels in T-ALL cells” value in the data set on Myc [7] is given as “reduced”.
